# Measured values reported in US8492376B2, “Heteroaryl-cyclohexyl-tetraazabenzo[e]azulenes” (Hoffmann-La Roche Inc., priority 2010, dated 2013).
# Biological target: T1, human V1a receptor (Homo sapiens, UniProt P37288)
# T1 construct: expressed in transfected cells; host or cells: HEK293 cells, transiently transfected; cell membranes
# Assay: human V1a receptor binding studies (3H-Vasopressin, SPA beads)
# Conditions: membranes from HEK293 cells transiently transfected with human V1a receptor, Ki calculated from IC50 by the Cheng-Prussoff equation, read-out: pKi (hV1a) (converted)
# How it was run: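 Membranes from HEK293 cells transiently expressing human V1a were bound to yttrium silicate SPA beads in Tris/NaCl/KCl/CaCl2/MgCl2 buffer. 3H-vasopressin (4 nM stock) and compound in 2% DMSO incubated 1 h at room temperature. Non-specific binding was defined with cold vasopressin; IC50 was converted to Ki by Cheng-Prusoff.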
# T1 sequence (P37288 whole entry): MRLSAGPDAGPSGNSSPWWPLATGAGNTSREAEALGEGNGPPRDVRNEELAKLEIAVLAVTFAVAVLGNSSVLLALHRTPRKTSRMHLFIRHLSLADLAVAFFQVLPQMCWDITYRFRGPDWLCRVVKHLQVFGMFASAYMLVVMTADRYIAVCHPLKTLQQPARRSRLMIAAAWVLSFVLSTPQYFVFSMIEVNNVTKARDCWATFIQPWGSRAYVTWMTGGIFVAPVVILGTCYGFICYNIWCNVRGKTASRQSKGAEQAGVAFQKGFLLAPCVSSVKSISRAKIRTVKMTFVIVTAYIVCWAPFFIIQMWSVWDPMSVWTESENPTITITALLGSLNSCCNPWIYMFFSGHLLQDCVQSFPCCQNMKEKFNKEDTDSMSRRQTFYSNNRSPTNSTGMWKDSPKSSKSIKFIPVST
compound,measurement,value
"CN1Cc2cc(Cl)ccc2-n2c(nnc2[C@H]2CC[C@H](c3cccnc3F)CC2)C1 [Example 56, trans-8-Chloro-1-[4-(2-fluoro-pyridin-3-yl)-cyclohexyl]-5-methyl-5,6-dihydro-4H-2,3,5,10b-tetraaza-benzo[e]azulene]",Ki,8.13 nM
"Cc1nccnc1[C@H]1CC[C@H](c2nnc3n2-c2ccc(Cl)cc2CN(C)C3)CC1 [Example 77, trans-8-Chloro-5-methyl-1-[4-(3-methyl-pyrazin-2-yl)-cyclohexyl]-5,6-dihydro-4H-2,3,5,10b-tetraaza-benzo[e]azulene]",Ki,5.13 nM
"CC(C)(C)OC(=O)N1Cc2cc(Cl)ccc2-n2c(nnc2[C@H]2CC[C@H](c3cnccn3)CC2)C1 [Example 69, trans-8-Chloro-1-(4-pyrazin-2-yl-cyclohexyl)-4H,6H-2,3,5,10b-tetraaza-benzo[e]azulene-5-carboxylic acid tert-butyl ester]",Ki,0.603 nM
"CN1Cc2cc(Cl)ccc2-n2c(nnc2[C@H]2CC[C@H](c3ncccn3)CC2)C1 [Example 60, trans-8-Chloro-5-methyl-1-(4-pyrimidin-2-yl-cyclohexyl)-5,6-dihydro-4H-2,3,5,10b-tetraaza-benzo[e]azulene]",Ki,2.19 nM
